# Measurements published in paper PMC3260434 (Journal of Molecular Neuroscience, 2011).
# No end group written: not given here.
# Key:
# [1] = tested on: primary neuronal cell cultures from rat cerebral cortex; experiment: Assay of cyclic AMP formation; type: cell-based; settings: for Increase in cyclic AMP production over the basal level: forskolin 1 μM, PACAP27 0.1 μM, VIP 3 μM, rat neuronal cell cultures
# [2] = tested on: astrocyte cultures from rat cerebral cortex; settings: ref Woldan-Tambor et al. [2011]; cited from earlier work
# OX2R = settings: heterologous expression systems; ref Sakurai et al. [1998]; Ammoun et al. [2003]; cited from earlier work
Compound,Increase in cyclic AMP production over the basal level [1],further results
C=C[C@@]1(C)CC(=O)[C@]2(O)[C@@]3(C)[C@@H](O)CCC(C)(C)[C@@H]3[C@H](O)[C@H](OC(C)=O)[C@@]2(C)O1 [forskolin],three- to fivefold over the basal level,–
PACAP27,three- to fivefold over the basal level,–
"VIP: vasoactive intestinal peptide (human, porcine, and rat) (HSDAVFTDNYTRLRKQMAVKKYLNSILN; ends and bridges not checked; UniProt P01282 125-152, looked up)",three- to fivefold over the basal level,–
[Ala^11-D-Leu^15]orexin B,–,"Effect on basal cyclic AMP accumulation ([1]; 0.001–1 μM, cultured rat cortical neurons, data not shown): No significant effects"
"orexin A: neuropeptide, an agonist of OX1R and OX2R; from NeoMPS (QPLPDCCRQKTCSCRLYELLHGAGNHAAGILTL; ends and bridges not checked; cysteine pairing not given here; UniProt O43612 34-66, looked up)",–,Effect on cyclic AMP synthesis in astrocyte cultures [2]: stimulatory effect
orexin B: neuropeptide derived from preproorexin; literature affinity only,–,Affinity of OX2R for orexins A and B (OX2R): equal affinity
